Source: the supplement of paper PMC10307832

Compound: Cc1ccccc1C(C(=O)NC1CCCCC1)N(C(=O)Cn1ccnc1C)c1cccc(F)c1 [IDH-C35] + CC(=O)c1c(C)c2cnc(Nc3ccc(N4CCNCC4)cn3)nc2n(C2CCCC2)c1=O [Palbociclib] (partner 0.5 µM)
Test: relative viability (nuclei count vs DMSO), 5 days (fraction); higher = more cells survive
Conditions: first compound 0.08 µM
In short: (§1)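 Relative viability is defined as nuclei in treated wells over nuclei in vehicle wells. Duplicate plates were run and medians reported. Lung cancer cell lines in 1536-well plates were dosed by pin tool one day after seeding, with one drug or with a fixed anchor-drug dose plus five library-drug doses (not always all listed) in √10 steps, and nuclei were counted after 5 days.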

Cell Line | relative viability
NCI-H522 | 1.07
NCI-H727 | 0.671
NCI-H1650 | 0.381
NCI-H1993 | 0.649
SW 1573 | 0.43
NCI-H838 | 0.24
LCLC-103H | 0.498
NCI-H520 | 0.206
NCI-H2126 | 0.349
EMC-BAC-2 | 0.522
NCI-H2085 | 0.448
HCC-366 | 0.374
NCI-H1666 | 0.678
LK-2 | 0.558
NCI-H2087 | 0.225
NCI-H2342 | 0.578
SK-MES-1 | 0.307
H3255 | 0.315
COR-L23 | 0.31
COR-L 105 | 0.417
LOU-NH91 | 0.553

Cell Line | relative viability
ChaGo-K-1 | 0.921
NCI-H2170 | 0.382
NCI-H2405 | 0.538
HOP-62 | 0.377
HCC-44 | 0.973
SW 900 | 0.487
LU99A | 0.38
BEN | 0.433
HARA | 0.222
HCC-78 | 0.462
NCI-H322M | 0.523
LCLC-97TM1 | 0.192
NCI-H2009 | 0.25
A-427 | 0.529
NCI-H441 | 0.183
NCI-H661 | 0.433
NCI-H1734 | 0.359
NCI-H460 | 0.23
NCI-H2347 | 0.432
SK-LU-1 | 0.47
NCI-H1395 | 0.626

Cell Line | relative viability
201T | 0.361
NCI-H1915 | 0.51
HCC-827 | 0.475
LXF-289 | 0.574
NCI-H23 | 0.55
NCI-H647 | 0.47
CAL-12T | 0.524
NCI-H1651 | 0.499
EPLC-272H | 0.294
NCI-H2228 | 0.795
NCI-H1792 | 0.711
NCI-H1355 | 0.438
NCI-H3122 | 0.183
NCI-H1437 | 0.346
NCI-H1755 | 0.463
NCI-H2023 | 0.398
HCC-15 | 0.791
NCI-H1793 | 0.273
PC-14 | 0.515
EKVX | 0.402

Same assay, conditions: first compound 0.253 µM

Cell Line | relative viability
NCI-H522 | 1.07
NCI-H727 | 0.663
NCI-H1650 | 0.329
NCI-H1993 | 0.504
SW 1573 | 0.432
NCI-H838 | 0.223
LCLC-103H | 0.483
NCI-H520 | 0.268
NCI-H2126 | 0.362
EMC-BAC-2 | 0.505
NCI-H2085 | 0.476
HCC-366 | 0.399
NCI-H1666 | 0.674
LK-2 | 0.717
NCI-H2087 | 0.211
NCI-H2342 | 0.535
SK-MES-1 | 0.286
H3255 | 0.281
COR-L23 | 0.294
COR-L 105 | 0.413
LOU-NH91 | 0.558

Cell Line | relative viability
ChaGo-K-1 | 0.907
NCI-H2170 | 0.377
NCI-H2405 | 0.512
HOP-62 | 0.435
HCC-44 | 0.965
SW 900 | 0.568
LU99A | 0.418
BEN | 0.514
HARA | 0.298
NCI-H1648 | 0.271
HCC-78 | 0.437
NCI-H322M | 0.48
LCLC-97TM1 | 0.22
NCI-H2009 | 0.28
A-427 | 0.527
NCI-H441 | 0.238
NCI-H661 | 0.407
NCI-H1734 | 0.33
NCI-H460 | 0.231
NCI-H2347 | 0.469
SK-LU-1 | 0.387

Cell Line | relative viability
NCI-H1395 | 0.605
201T | 0.375
NCI-H1915 | 0.527
HCC-827 | 0.483
LXF-289 | 0.584
NCI-H23 | 0.494
NCI-H647 | 0.433
CAL-12T | 0.575
NCI-H1651 | 0.505
EPLC-272H | 0.347
NCI-H2228 | 0.728
NCI-H1792 | 0.609
NCI-H1355 | 0.4
NCI-H3122 | 0.178
NCI-H1437 | 0.313
NCI-H1755 | 0.412
NCI-H2023 | 0.34
HCC-15 | 0.695
NCI-H1793 | 0.303
PC-14 | 0.511
EKVX | 0.365

Same assay, conditions: first compound 0.8 µM

Cell Line | relative viability
NCI-H522 | 1.01
NCI-H727 | 0.673
NCI-H1650 | 0.355
NCI-H1993 | 0.654
SW 1573 | 0.388
NCI-H838 | 0.229
LCLC-103H | 0.532
NCI-H520 | 0.215
NCI-H2126 | 0.333
EMC-BAC-2 | 0.563
NCI-H2085 | 0.495
HCC-366 | 0.381
NCI-H1666 | 0.607
LK-2 | 0.683
NCI-H2087 | 0.24
NCI-H2342 | 0.475
SK-MES-1 | 0.301
H3255 | 0.337
COR-L23 | 0.305
COR-L 105 | 0.41
LOU-NH91 | 0.54

Cell Line | relative viability
ChaGo-K-1 | 0.92
NCI-H2170 | 0.425
NCI-H2405 | 0.525
HOP-62 | 0.426
HCC-44 | 0.987
LU99A | 0.394
BEN | 0.466
HARA | 0.268
NCI-H1648 | 0.322
HCC-78 | 0.439
NCI-H322M | 0.493
LCLC-97TM1 | 0.213
NCI-H2009 | 0.32
A-427 | 0.511
NCI-H441 | 0.254
NCI-H661 | 0.392
NCI-H1734 | 0.352
NCI-H460 | 0.194
NCI-H2347 | 0.42
SK-LU-1 | 0.366
NCI-H1395 | 0.612

Cell Line | relative viability
201T | 0.346
NCI-H1915 | 0.506
HCC-827 | 0.397
LXF-289 | 0.591
NCI-H23 | 0.43
NCI-H647 | 0.399
CAL-12T | 0.414
NCI-H1651 | 0.523
EPLC-272H | 0.353
NCI-H2228 | 0.738
NCI-H1792 | 0.646
NCI-H1355 | 0.393
NCI-H3122 | 0.186
NCI-H1437 | 0.284
NCI-H1755 | 0.438
NCI-H2023 | 0.378
HCC-15 | 0.748
NCI-H1793 | 0.356
PC-14 | 0.484
EKVX | 0.385

Same assay, conditions: first compound 2.53 µM

Cell Line | relative viability
NCI-H522 | 0.944
NCI-H727 | 0.66
NCI-H1650 | 0.422
NCI-H1993 | 0.617
SW 1573 | 0.462
NCI-H838 | 0.22
LCLC-103H | 0.518
NCI-H520 | 0.225
NCI-H2126 | 0.351
EMC-BAC-2 | 0.543
NCI-H2085 | 0.492
HCC-366 | 0.38
NCI-H1666 | 0.682
LK-2 | 0.746
NCI-H2087 | 0.308
NCI-H2342 | 0.526
SK-MES-1 | 0.317
H3255 | 0.305
COR-L23 | 0.311
COR-L 105 | 0.407

Cell Line | relative viability
LOU-NH91 | 0.551
ChaGo-K-1 | 0.898
NCI-H2170 | 0.385
NCI-H2405 | 0.561
HOP-62 | 0.419
HCC-44 | 0.951
SW 900 | 0.522
LU99A | 0.398
BEN | 0.481
HARA | 0.311
NCI-H1648 | 0.246
HCC-78 | 0.494
NCI-H322M | 0.493
NCI-H2009 | 0.227
A-427 | 0.512
NCI-H441 | 0.242
NCI-H661 | 0.41
NCI-H1734 | 0.325
NCI-H460 | 0.233
NCI-H2347 | 0.475

Cell Line | relative viability
SK-LU-1 | 0.391
NCI-H1395 | 0.601
201T | 0.351
NCI-H1915 | 0.556
HCC-827 | 0.562
LXF-289 | 0.604
NCI-H23 | 0.525
NCI-H647 | 0.347
CAL-12T | 0.525
NCI-H1651 | 0.527
NCI-H2228 | 0.723
NCI-H1792 | 0.679
NCI-H1355 | 0.427
NCI-H3122 | 0.187
NCI-H1437 | 0.316
NCI-H1755 | 0.466
NCI-H2023 | 0.384
NCI-H1793 | 0.327
PC-14 | 0.573
EKVX | 0.356

Same assay, conditions: first compound 8 µM

Cell Line | relative viability
NCI-H522 | 0.99
NCI-H727 | 0.574
NCI-H1650 | 0.4
NCI-H1993 | 0.666
SW 1573 | 0.353
NCI-H838 | 0.211
LCLC-103H | 0.484
NCI-H520 | 0.23
NCI-H2126 | 0.359
EMC-BAC-2 | 0.497
NCI-H2085 | 0.456
HCC-366 | 0.321
NCI-H1666 | 0.645
LK-2 | 0.74
NCI-H2087 | 0.228
NCI-H2342 | 0.662
SK-MES-1 | 0.271
H3255 | 0.326
COR-L23 | 0.315
COR-L 105 | 0.401
LOU-NH91 | 0.519

Cell Line | relative viability
ChaGo-K-1 | 0.983
NCI-H2170 | 0.379
NCI-H2405 | 0.525
HOP-62 | 0.394
HCC-44 | 0.962
SW 900 | 0.506
LU99A | 0.403
BEN | 0.463
HARA | 0.234
NCI-H1648 | 0.285
HCC-78 | 0.553
NCI-H322M | 0.49
LCLC-97TM1 | 0.27
NCI-H2009 | 0.147
A-427 | 0.545
NCI-H441 | 0.224
NCI-H661 | 0.384
NCI-H1734 | 0.305
NCI-H460 | 0.12
NCI-H2347 | 0.448
SK-LU-1 | 0.418

Cell Line | relative viability
NCI-H1395 | 0.598
201T | 0.343
NCI-H1915 | 0.529
HCC-827 | 0.472
LXF-289 | 0.583
NCI-H23 | 0.538
NCI-H647 | 0.397
CAL-12T | 0.408
NCI-H1651 | 0.545
EPLC-272H | 0.316
NCI-H2228 | 0.728
NCI-H1792 | 0.673
NCI-H1355 | 0.388
NCI-H3122 | 0.182
NCI-H1437 | 0.294
NCI-H1755 | 0.401
NCI-H2023 | 0.357
HCC-15 | 0.67
NCI-H1793 | 0.322
PC-14 | 0.441
EKVX | 0.373

Compound: Cc1ccccc1C(C(=O)NC1CCCCC1)N(C(=O)Cn1ccnc1C)c1cccc(F)c1 [IDH-C35] + O=C(c1cc(Cc2n[nH]c(=O)c3ccccc23)ccc1F)N1CCN(C(=O)C2CC2)CC1 [Olaparib] (partner 8 µM)
Test: as above
Conditions: first compound 0.08 µM
In short: as §1

Cell Line | relative viability
NCI-H522 | 0.594
NCI-H727 | 0.633
NCI-H1650 | 0.783
EBC-1 | 0.702
NCI-H1703 | 0.293
NCI-H1993 | 1.21
SW 1573 | 0.5
NCI-H838 | 0.797
LCLC-103H | 0.788
NCI-H520 | 0.309
NCI-H2126 | 0.896
EMC-BAC-2 | 0.496
NCI-H2085 | 0.807
Calu-6 | 0.57
HCC-366 | 0.353
NCI-H1666 | 0.777
NCI-H596 | 0.591
